# From PMC11880385 (Nature Communications, 2025)
# How the values were obtained:
# [1] = system: C. albicans (CaSS1); assay: C. albicans growth inhibition, two-fold dose-response assay; details: for whole-cell antifungal activity against C. albicans / concentration at which bioactivity was retained: 5% CO2; for MIC80: Candida albicans, 48 h, read-out: C. albicans MIC80
# [2] = molecular target: human CK1α (Homo sapiens, UniProt P48729); assay: HsCK1α kinase inhibition assay; type: biochemical
# [3] = molecular target: T1, C. albicans Yck2 kinase domain (Candida albicans, UniProt A0A1D8PKB4); assay: biochemical; type: biochemical
# T1 sequence (A0A1D8PKB4 37-345): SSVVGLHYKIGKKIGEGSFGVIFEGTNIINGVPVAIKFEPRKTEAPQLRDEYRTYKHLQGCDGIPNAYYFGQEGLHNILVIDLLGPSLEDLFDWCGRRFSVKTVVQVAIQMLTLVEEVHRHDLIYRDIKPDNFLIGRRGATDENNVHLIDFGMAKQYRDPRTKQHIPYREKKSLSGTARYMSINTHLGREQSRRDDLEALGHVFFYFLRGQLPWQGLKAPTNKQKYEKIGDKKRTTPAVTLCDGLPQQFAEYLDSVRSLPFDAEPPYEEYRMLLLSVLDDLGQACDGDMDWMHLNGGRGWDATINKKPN
# [4] = Mouse liver microsomal stability assay; details: mouse liver microsomes; for remaining at 0.5 h, 1 µM: mouse; for metabolic stability category: 30 minutes, 1 μM
# [5] = system: C. albicans Yck2 kinase domain; assay: biochemical; type: biochemical, Candida albicans; details: Ratio of HsCK1α IC50 / CaYck2 IC50
# [6] = system: J774A.1 cells infected with C. albicans (SC5314); assay: Macrophage killing assay; details: for macrophage viability in co-culture: 30 µM; for IC50: Mus musculus, J774.A1, 24 h, read-out: IC50 of rescuing macrophage viability
# [7] = Plasma, kidney and brain exposure in mice; details: 50 mg/kg oral
# [8] = system: echinocandin-resistant C. albicans strain (DPL15; FKS1^T1922C/FKS1^T1922C); assay: Caspofungin potentiation dose-response assay in echinocandin-resistant strain; details: sub-inhibitory caspofungin (3 µg/mL); YPD, 30 °C, 48 h
# [9] = system: C. albicans (TEF1p-GFP) in J774A.1 cells; assay: Visualization of C. albicans filamentation in macrophages; details: 4 h incubation; 0.94, 7.5 or 30 µM
# [10] = Tolerability on repeated oral dosing in uninfected mice; details: 25 mg/kg once daily over 3 days
# [11] = system: C. albicans (TEF1p-GFP) in co-culture with J774A.1 cells; assay: C. albicans growth in co-culture with macrophages; details: 16 h post-infection
# [12] = Plasma pharmacokinetic profiling in mice; details: female, CD1, mouse, in vivo, po, 25 mg/kg, maximal plasma concentration (Cmax), 25 mg/kg p.o.
# [13] = system: Nakaseomyces glabratus (formerly referred to as Candida glabrata); details: cited from earlier work
# [14] = system: Aspergillus fumigatus; details: cited from earlier work
# [15] = system: Cryptococcus neoformans; details: cited from earlier work
# [16] = system: C. auris; details: cited from earlier work
# Sequence of human CK1α (P48729 whole entry, the tested form may be a part): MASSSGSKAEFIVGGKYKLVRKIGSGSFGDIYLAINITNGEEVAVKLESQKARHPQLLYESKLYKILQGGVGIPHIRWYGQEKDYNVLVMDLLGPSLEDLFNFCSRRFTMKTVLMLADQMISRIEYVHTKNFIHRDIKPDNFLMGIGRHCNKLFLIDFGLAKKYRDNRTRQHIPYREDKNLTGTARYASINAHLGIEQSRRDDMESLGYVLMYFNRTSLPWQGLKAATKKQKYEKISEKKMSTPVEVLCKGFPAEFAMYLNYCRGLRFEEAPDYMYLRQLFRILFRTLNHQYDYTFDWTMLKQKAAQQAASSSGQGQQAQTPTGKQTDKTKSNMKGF
Structure (SMILES),"whole-cell antifungal activity against C. albicans ([1]; RPMI, 37 °C)",IC50 [2] [nM],IC50 [3] [nM],MIC80 [1] [µM],"remaining at 0.5 h, 1 µM [4] [%]",Fungal selectivity (fold) [5] [fold],further results
Fc1ccc(-c2nn3ccc(C(F)(F)F)cc3c2-c2ccncc2)cc1 [Compound 2h],little to no whole-cell antifungal activity,> 15000,> 1000,,,,"CaYck2 IC50 ([3]; two-fold dose-response up to 1 µM, ATP 20 μM (Km)): above the maximum concentration tested"
COc1ccc2c(-c3ccncc3)c(-c3ccc(F)cc3)nn2c1 [Compound 2d],robust anti-C. albicans bioactivity,,,12.5,,,
COc1cccn2nc(-c3ccc(F)cc3)c(-c3ccncc3)c12 [Compound 2n],,4900,120,25,1,41,
N#Cc1ccc2c(-c3ccncc3)c(-c3ccc(F)cc3)nn2c1 [Compound 2a],robust anti-C. albicans bioactivity,,,12.5,,,"macrophage viability in co-culture [6]: restoring full viability; IC50 [6]: 2170 nM; brain penetration [7]: accumulated in brain tissue at levels higher than the systemic circulation; C. albicans MIC80 ([1]; wild-type C. albicans, RPMI, 37 °C, 5% CO2, 48 h): 12.5 µM; reduction in MIC80 upon addition of caspofungin [8]: ≥ 32 fold; filamentation of C. albicans [9]: inhibited filamentation; changes in animal weight or behavior [10]: no changes in animal weight or behavior were observed; reduction of C. albicans growth in co-culture [11]: most effective; Cmax [12]: ~15 µM"
"Cc1ccc2c(-c3ccncc3)c(-c3ccc(F)cc3)nn2c1 [GW, GW461484A, reference compound]",,,,12.5,< 1,,macrophage viability in co-culture [6]: restoring full viability; IC50 [6]: 2050 nM; single-agent antifungal activity in vitro [13]: no single-agent antifungal activity was observed; metabolic stability category [4]: unstable (compound concentration remaining in the microsomal suspension after incubation for 30 minutes was ≤ 50% of the starting concentration (1 μM)); single-agent antifungal activity in vitro [14]: no single-agent antifungal activity was observed; reduction in MIC80 upon addition of caspofungin [8]: ≥ 32 fold; filamentation of C. albicans [9]: inhibited filamentation; reduction of C. albicans growth in co-culture [11]: most effective; antifungal activity [15]: possesses antifungal activity; antifungal activity [16]: possesses antifungal activity
Fc1ccc(-c2nc3cc(C4CC4)ccn3c2-c2ccncc2)cc1 [Compound 1h],,,180,50 to 100,0,,"concentration at which bioactivity was retained ([1]; RPMI, 37 °C): 50 µM"
Cc1ccn2nc(-c3ccc(F)cc3)c(-c3ccncc3)c2c1 [Compound 2f],,2000,,,1,,metabolic stability category [4]: unstable (compound concentration remaining in the microsomal suspension after incubation for 30 minutes was ≤ 50% of the starting concentration (1 μM))
CCc1ccn2c(-c3ccncc3)c(-c3ccc(F)cc3)nc2c1 [Compound 1d],,1700,490,50,0,3.5,"concentration at which bioactivity was retained ([1]; RPMI, 37 °C): 50 µM"
Fc1ccc(-c2nc3cc(C(F)(F)F)ccn3c2-c2ccncc2)cc1 [Compound 1g],loss of bioactivity,8400,630,> 100,84,13,
COc1ccn2c(-c3ccncc3)c(-c3ccc(F)cc3)nc2c1 [Compound 1b],robust anti-C. albicans bioactivity,1000,260,50,2,3.9,
